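Here, GI50 denotes the concentration required for 50% inhibition of growth. At the TGI there is no net growth.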
Assays:
Assay in all cases: inhibition of tumour cell growth, NCI panel, 384-well format
[1] = tested on: HT29 colon
[2] = tested on: NCI-H460 NSCLC
[3] = tested on: SNB-19 CNS
[4] = tested on: SF-539 CNS
[5] = tested on: MALME-3M melanoma
[6] = tested on: UACC-257 melanoma
[7] = tested on: NCI-H226 lung
[8] = tested on: HCT-116 colon
[9] = tested on: OVCAR-8 ovarian
[10] = tested on: BT-549 breast
[11] = tested on: MDA-MB-231 breast
[12] = tested on: OVCAR-4 ovarian
[13] = tested on: HCC-2998 colon
[14] = tested on: OVCAR-3 ovarian
[15] = tested on: TK-10 renal
[16] = tested on: NCI-H322M lung
[17] = tested on: A549 NSCLC
[18] = tested on: SNB-75 CNS
[19] = tested on: KM12 colon
[20] = tested on: ACHN renal
[21] = tested on: RPMI-8226 leukemia
[22] = tested on: HS 578T breast
[23] = tested on: MDA-MB-468 breast
[24] = tested on: CAKI-1 renal
[25] = tested on: HOP-62 NSCLC
[26] = tested on: IGROV1 ovarian
[27] = tested on: MOLT-4 leukemia
[28] = tested on: HCT-15 colon
[29] = tested on: SK-MEL-5 melanoma
[30] = tested on: A498 renal
[31] = tested on: EKVX NSCLC
[32] = tested on: DU-145 prostate
[33] = tested on: SK-OV-3 ovarian
[34] = tested on: MCF7 breast
[35] = tested on: NCI/ADR-RES ovarian
[36] = tested on: PC-3 prostate
[37] = tested on: NCI-H23 lung
[38] = tested on: UACC-62 melanoma
[39] = tested on: SK-MEL-28 melanoma
[40] = tested on: HOP-92 NSCLC
[41] = tested on: SF-295 CNS
[42] = tested on: RXF 393 renal
[43] = tested on: SN12C renal
[44] = tested on: NCI-H522 lung
[45] = tested on: COLO 205 colon
[46] = tested on: SR leukemia
[47] = tested on: MDA-MB-435 melanoma
[48] = tested on: U251 glioblastoma
[49] = tested on: OVCAR-5 ovarian
[50] = tested on: T-47D breast
[51] = tested on: SF-268 CNS
[52] = tested on: HL-60(TB) leukemia
[53] = tested on: LOX IMVI melanoma
[54] = tested on: M14 melanoma

COC(=O)c1ccc2c(c1)nc(NC(=O)c1ccccc1)n2CCCc1ccccc1
GI50 [1]: 2.72 µM
TGI [1]: > 100 µM
GI50 [2]: 0.342 µM
TGI [2]: 1.14 µM
GI50 [3]: 2.21 µM
TGI [3]: 20 µM
GI50 [4]: 2.13 µM
TGI [4]: 18 µM
GI50 [5]: 2.9 µM
TGI [5]: > 100 µM
GI50 [6]: 2.32 µM
TGI [6]: 9.95 µM
GI50 [7]: 3.41 µM
TGI [7]: 48.9 µM
GI50 [8]: 0.852 µM
TGI [8]: > 100 µM
GI50 [9]: 1.58 µM
TGI [9]: 5.25 µM
GI50 [10]: 0.741 µM
TGI [10]: 6.46 µM
GI50 [11]: 7.06 µM
TGI [11]: > 100 µM
GI50 [12]: 11.5 µM
TGI [12]: 65.9 µM
GI50 [13]: 1.85 µM
TGI [13]: > 100 µM
GI50 [14]: 1.84 µM
TGI [14]: 69.4 µM
GI50 [15]: 2.63 µM
TGI [15]: 34.5 µM
GI50 [16]: 0.884 µM
TGI [16]: 8.59 µM
GI50 [17]: 3.61 µM
TGI [17]: > 100 µM
GI50 [18]: 3.91 µM
TGI [18]: 66.8 µM
GI50 [19]: 2.33 µM
TGI [19]: > 100 µM
GI50 [20]: 3.99 µM
TGI [20]: 31.7 µM
GI50 [21]: 1.5 µM
TGI [21]: 4.6 µM
GI50 [22]: 6.95 µM
TGI [22]: > 100 µM
GI50 [23]: 2.19 µM
TGI [23]: > 100 µM
GI50 [24]: 6.36 µM
TGI [24]: > 100 µM
GI50 [25]: 0.469 µM
TGI [25]: 3.55 µM
GI50 [26]: 2.04 µM
TGI [26]: > 100 µM
GI50 [27]: 0.222 µM
TGI [27]: 0.413 µM
GI50 [28]: 0.478 µM
TGI [28]: 4 µM
GI50 [29]: 0.395 µM
TGI [29]: 1.67 µM
GI50 [30]: 2.08 µM
TGI [30]: 15.9 µM
GI50 [31]: 1.46 µM
TGI [31]: > 100 µM
GI50 [32]: 1.77 µM
TGI [32]: 24.4 µM
GI50 [33]: 0.973 µM
TGI [33]: > 100 µM
GI50 [34]: 1.65 µM
TGI [34]: > 100 µM
GI50 [35]: 0.458 µM
TGI [35]: 2.16 µM
GI50 [36]: 4.95 µM
TGI [36]: > 100 µM
GI50 [37]: 1.86 µM
TGI [37]: > 100 µM
GI50 [38]: 2.45 µM
TGI [38]: > 100 µM
GI50 [39]: 3.12 µM
TGI [39]: > 100 µM
GI50 [40]: 3.93 µM
TGI [40]: > 100 µM
GI50 [41]: 3.11 µM
TGI [41]: > 100 µM
GI50 [42]: 3.11 µM
TGI [42]: > 100 µM
GI50 [43]: 2.38 µM
TGI [43]: 8.75 µM
GI50 [44]: 1.49 µM
TGI [44]: 9.61 µM
GI50 [45]: 2.04 µM
TGI [45]: 5.78 µM
GI50 [46]: 0.203 µM
TGI [46]: 0.44 µM
GI50 [47]: 4.03 µM
TGI [47]: > 100 µM
GI50 [48]: 0.673 µM
TGI [48]: 11.3 µM
GI50 [49]: 3.94 µM
TGI [49]: 31.6 µM
GI50 [50]: 4.13 µM
TGI [50]: > 100 µM
GI50 [51]: 1.81 µM
TGI [51]: > 100 µM
GI50 [52]: 0.413 µM
TGI [52]: 1.75 µM
GI50 [53]: 0.946 µM
TGI [53]: 2.81 µM
GI50 [54]: 0.519 µM
TGI [54]: 3.05 µM

— PubChem BioAssay (NCI)
